Measurements: ChEMBL document CHEMBL1132434, “Antitumor benzothiazoles. 8. Synthesis, metabolic formation, and biological properties of the C- and N-oxidation products of antitumor 2-(4-aminophenyl)benzothiazoles” (J Med Chem, 1999)

Key:
MCF7 [1] = test: In vitro cytotoxicity against MCF-7 human mammary carcinoma cells; assay type: functional, cell-based
786-0 = test: Growth inhibition of the 786-O Renal cancer cell line for 2-day in vitro assay.; assay type: functional; details: Homo sapiens, 786-0, 48 h
A498 = test: Growth inhibition of the A498 Renal cancer cell line for 2-day in vitro assay.; assay type: functional; details: Homo sapiens, A498, 48 h
A549 = test: Growth inhibition of the A549/ATCC non-small cell lung cancer cell line for 2-day in vitro assay.; assay type: functional; details: Homo sapiens, A549, 48 h
ACHN = test: Growth inhibition of the ACHN Renal cancer cell line for 2-day in vitro assay.; assay type: functional; details: Homo sapiens, 48 h
CCRF-CEM = test: Growth inhibition of the CCRF-CEM leukemia cell line for 2-day in vitro assay.; assay type: functional; details: Homo sapiens, 48 h
COLO 205 = test: Growth inhibition of the COLO-205 colon cancer cell line for 2-day in vitro assay.; assay type: functional; details: Homo sapiens, COLO 205, 48 h
DU-145 = test: Growth inhibition of the DU-145 Prostate cancer cell line for 2-day in vitro assay.; assay type: functional; details: Homo sapiens, DU-145, 48 h
EKVX = test: Growth inhibition of the EKVX non-small cell lung cancer cell line for 2-day in vitro assay.; assay type: functional; details: Homo sapiens, 48 h
HCT-15 = test: Growth inhibition of the HCT-15 colon cancer cell line for 2-day in vitro assay.; assay type: functional; details: Homo sapiens, HCT-15, 48 h
HL-60 = test: Growth inhibition of the HL-60(TB) leukemia cell line for 2-day in vitro assay.; assay type: functional; details: Homo sapiens, HL-60, 48 h
HOP-62 = test: Growth inhibition of the HOP-62 non-small cell lung cancer cell line for 2-day in vitro assay.; assay type: functional; details: Homo sapiens, HOP-62, 48 h
HCT-116 = test: Growth inhibition of the HCT116 colon cancer cell line for 2-day in vitro assay.; assay type: functional; details: Homo sapiens, HCT-116, 48 h
HCC 2998 = test: Growth inhibition of the HCC2998 colon cancer cell line for 2-day in vitro assay.; assay type: functional; details: Homo sapiens, HCC 2998, 48 h
Hs-578T = test: Growth inhibition of the Hs 578.T Breast cancer cell line for 2-day in vitro assay.; assay type: functional; details: Homo sapiens, 48 h
K562 = test: Growth inhibition of the K-562 leukemia cell line for 2-day in vitro assay.; assay type: functional; details: Homo sapiens, K562, 48 h
KM12 = test: Growth inhibition of the KM12 colon cancer cell line for 2-day in vitro assay.; assay type: functional; details: Homo sapiens, KM12, 48 h
M14 = test: Growth inhibition of the M14 Melanoma cancer cell line for 2-day in vitro assay.; assay type: functional; details: Homo sapiens, M14, 48 h
LOX IMVI = test: Growth inhibition of the LOX IMVI Melanoma cancer cell line for 2-day in vitro assay.; assay type: functional; details: Homo sapiens, 48 h
MDA-MB-435 = test: Growth inhibition of the […] Breast cancer cell line for 2-day in vitro assay.; assay type: functional; details: Homo sapiens, MDA-MB-435, 48 h
MDA-N = test: Growth inhibition of the MDA-N Breast cancer cell line for 2-day in vitro assay.; assay type: functional; details: Homo sapiens, 48 h
Malme-3M = test: Growth inhibition of the MALME-3M Melanoma cancer cell line for 2-day in vitro assay.; assay type: functional; details: Homo sapiens, 48 h
NCI-H522 = test: Growth inhibition of the NCI-H522 non-small cell lung cancer cell line for 2-day in vitro assay.; assay type: functional; details: Homo sapiens, NCI-H522, 48 h
NCI-H226 = test: Growth inhibition of the NCI-H226 non-small cell lung cancer cell line for 2-day in vitro assay.; assay type: functional; details: Homo sapiens, NCI-H226, 48 h
NCI-H322M = test: Growth inhibition of the NCI-H322M non-small cell lung cancer cell line for 2-day in vitro assay.; assay type: functional; details: Homo sapiens, 48 h
OVCAR-8 = test: Growth inhibition of the OVCAR-8 Ovarian cancer cell line for 2-day in vitro assay.; assay type: functional; details: Homo sapiens, OVCAR-8, 48 h
OVCAR-4 = test: Growth inhibition of the OVCAR-4 Ovarian cancer cell line for 2-day in vitro assay.; assay type: functional; details: Homo sapiens, OVCAR-4, 48 h
NCI-H460 = test: Growth inhibition of the NCI-H460 non-small cell lung cancer cell line for 2-day in vitro assay.; assay type: functional; details: Homo sapiens, NCI-H460, 48 h
NCI-H23 = test: Growth inhibition of the NCI-H23 non-small cell lung cancer cell line for 2-day in vitro assay.; assay type: functional; details: Homo sapiens, NCI-H23, 48 h
PC-3 = test: Growth inhibition of the PC-3 Prostate cancer cell line for 2-day in vitro assay.; assay type: functional; details: Homo sapiens, PC-3, 48 h
RXF 393 = test: Growth inhibition of the RXF-393 Renal cancer cell line for 2-day in vitro assay.; assay type: functional; details: Homo sapiens, RXF 393, 48 h
SF-268 = test: Growth inhibition of the SF-268 CNS cancer cell line for 2-day in vitro assay.; assay type: functional; details: Homo sapiens, SF-268, 48 h
SK-MEL-2 = test: Growth inhibition of the SK-MEL-2 Melanoma cancer cell line for 2-day in vitro assay.; assay type: functional; details: Homo sapiens, SK-MEL-2, 48 h
SW-620 = test: Growth inhibition of the SW-620 colon cancer cell line for 2-day in vitro assay.; assay type: functional; details: Homo sapiens, SW-620, 48 h
SF-539 = test: Growth inhibition of the SF-539 CNS cancer cell line for 2-day in vitro assay.; assay type: functional; details: Homo sapiens, SF-539, 48 h
SN12C = test: Growth inhibition of the SN12C Renal cancer cell line for 2-day in vitro assay.; assay type: functional; details: Homo sapiens, 48 h
SNB-19 = test: Growth inhibition of the SNB19 CNS cancer cell line for 2-day in vitro assay.; assay type: functional; details: Homo sapiens, SNB-19, 48 h
SF-295 = test: Growth inhibition of the SF-295 CNS cancer cell line for 2-day in vitro assay.; assay type: functional; details: Homo sapiens, SF-295, 48 h
SR = test: Growth inhibition of the SR leukemia cell line for 2-day in vitro assay.; assay type: functional; details: Homo sapiens, 48 h
SK-MEL-5 = test: Growth inhibition of the SK-MEL-5 Melanoma cancer cell line for 2-day in vitro assay.; assay type: functional; details: Homo sapiens, SK-MEL-5, 48 h
SNB-75 = test: Growth inhibition of the SNB-75 CNS cancer cell line for 2-day in vitro assay.; assay type: functional; details: Homo sapiens, SNB-75, 48 h
SK-MEL-28 = test: Growth inhibition of the SK-MEL-28 Melanoma cancer cell line for 2-day in vitro assay.; assay type: functional; details: Homo sapiens, SK-MEL-28, 48 h
TK-10 = test: Growth inhibition of the TK-10 Renal cancer cell line for 2-day in vitro assay.; assay type: functional; details: Homo sapiens, TK-10, 48 h
T47D = test: Growth inhibition of the T-47D Breast cancer cell line for 2-day in vitro assay.; assay type: functional; details: Homo sapiens, 48 h
UO-31 = test: Growth inhibition of the UO-31 Renal cancer cell line for 2-day in vitro assay.; assay type: functional; details: Homo sapiens, UO-31, 48 h
UACC-257 = test: Growth inhibition of the UACC-257 Melanoma cancer cell line for 2-day in vitro assay.; assay type: functional; details: Homo sapiens, UACC-257, 48 h
U-251 = test: Growth inhibition of the U251 CNS cancer cell line for 2-day in vitro assay.; assay type: functional; details: Homo sapiens, U-251, 48 h
UACC-62 = test: Growth inhibition of the UACC-62 Melanoma cancer cell line for 2-day in vitro assay.; assay type: functional; details: Homo sapiens, UACC-62, 48 h
NCI/ADR-RES = test: Growth inhibition of the NCI/ADR-RES Breast cancer cell line for 2-day in vitro assay.; assay type: functional; details: Homo sapiens, 48 h
SK-OV-3 = test: Growth inhibition of the SK-OV-3 Ovarian cancer cell line for 2-day in vitro assay.; assay type: functional; details: Homo sapiens, SK-OV-3, 48 h
HT-29 = test: Growth inhibition of the HT-29 colon cancer cell line for 2-day in vitro assay.; assay type: functional; details: Homo sapiens, HT-29, 48 h
MDA-MB-231 = test: Growth inhibition of the […] Breast cancer cell line for 2-day in vitro assay.; assay type: functional; details: Homo sapiens, MDA-MB-231, 48 h
MCF7 [2] = test: Growth inhibition of the MCF-7 Breast cancer cell line for 2-day in vitro assay.; assay type: functional; details: Homo sapiens, MCF7, 48 h
MOLT-4 = test: Growth inhibition of the MOLT-4 leukemia cell line for 2-day in vitro assay.; assay type: functional; details: Homo sapiens, MOLT-4, 48 h
BT-549 = test: Growth inhibition of the BT-549 Breast cancer cell line for 2-day in vitro assay.; assay type: functional; details: Homo sapiens, BT-549, 48 h

Compound: CC(=O)Nc1ccc(-c2nc3c(O)cccc3s2)cc1C
- IC50 (MCF7 [1]): 33 µM

Compound: Cc1cc(-c2nc3ccccc3s2)ccc1N
- GI50 (786-0): > 100 µM
- GI50 (A498): 42.7 µM
- GI50 (A549): 28.8 µM
- GI50 (ACHN): 51.3 µM
- GI50 (CCRF-CEM): 6.46 µM
- GI50 (COLO 205): 51.3 µM
- GI50 (DU-145): 61.7 µM
- GI50 (EKVX): 34.7 µM
- GI50 (HCT-15): 47.9 µM
- GI50 (HL-60): 8.71 µM
- GI50 (HOP-62): > 100 µM
- GI50 (HCT-116): 43.7 µM
- GI50 (HCC 2998): 0.251 µM
- GI50 (Hs-578T): > 100 µM
- GI50 (K562): 60.3 µM
- GI50 (KM12): > 100 µM
- GI50 (M14): 57.5 µM
- GI50 (LOX IMVI): 37.2 µM
- GI50 (MDA-MB-435): 79.4 µM
- IC50 (MCF7 [1]): < 0.001 µM
- GI50 (MDA-N): 97.7 µM
- GI50 (Malme-3M): > 100 µM
- GI50 (NCI-H522): 32.4 µM
- GI50 (NCI-H226): 0.355 µM
- GI50 (NCI-H322M): 43.7 µM
- GI50 (OVCAR-8): > 100 µM
- GI50 (OVCAR-4): 0.55 µM
- GI50 (NCI-H460): 53.7 µM
- GI50 (NCI-H23): 58.9 µM
- GI50 (PC-3): 31.6 µM
- GI50 (RXF 393): 67.6 µM
- GI50 (SF-268): > 100 µM
- GI50 (SK-MEL-2): > 100 µM
- GI50 (SW-620): > 100 µM
- GI50 (SF-539): > 100 µM
- GI50 (SN12C): 50.1 µM
- GI50 (SNB-19): > 100 µM
- GI50 (SF-295): 64.6 µM
- GI50 (SR): 17.4 µM
- GI50 (SK-MEL-5): 21.9 µM
- GI50 (SNB-75): 33.1 µM
- GI50 (SK-MEL-28): > 100 µM
- GI50 (TK-10): 0.186 µM
- GI50 (T47D): 0.107 µM
- GI50 (UO-31): 6.46 µM
- GI50 (UACC-257): 74.1 µM
- GI50 (U-251): 66.1 µM
- GI50 (UACC-62): 70.8 µM
- GI50 (NCI/ADR-RES): 93.3 µM
- GI50 (SK-OV-3): > 100 µM
- GI50 (HT-29): 29.5 µM
- GI50 (MDA-MB-231): 66.1 µM
- GI50 (MCF7 [2]): 0.0316 µM
- GI50 (MOLT-4): 19.5 µM
- GI50 (BT-549): 66.1 µM

Compound: Cc1cc(-c2nc3cc(O)ccc3s2)ccc1N
- IC50 (MCF7 [1]): 78.7 µM

Compound: Nc1ccc(-c2nc3ccccc3s2)cc1
- IC50 (MCF7 [1]): < 0.001 µM

Compound: Nc1ccc(-c2nc3ccccc3s2)cc1Cl
- IC50 (MCF7 [1]): < 0.001 µM

Compound: CC(=O)ON(C(C)=O)c1ccc(-c2nc3ccccc3s2)cc1
- IC50 (MCF7 [1]): < 0.001 µM
